Source: patent US20100130581A1, “COMPOUNDS AND METHODS FOR THE TREATMENT OF PAIN” (THE UNIVERSITY OF QUEENSLAND, priority 2006, published 2010)
Where a SMILES comes first, the peptide text is derived from it. [ ]: non-standard residue; d: D form. ξ: configuration not given here. ξAoc(2) = CCCCCCC(N)C(=O)O

Key:
[1] = test system: homogenate of Caco-2 cells; assay: Enzymatic stability study in homogenized Caco-2 cells; type: in vitro ADME; details: Caco-2 cell line; graded by number of ♦ (up to 5), key not given
Experimental: (§1) Approximately 1×10^5 cells/mL concentration of cells were seeded onto the 96 well plate. […] The media was changed every other day. 21-28 days old cells were used for the experiments. the media was removed from the wells and each well washed with 100 μL 0.2% EDTA solution followed by washing three times with Hanks' balanced salt solution (HBSS) containing 25 mM Hepes (pH 7.4). Finally, 100 μL of this buffer was placed in each well and the plate cooled in ice. The monolayer of cells in each well was then disrupted by 2×1 second pulses with a Sonics Vibracell ultrasonic processor set at an amplitude of 30. The cell debris was then removed by centrifugation of the plate at 2000 rpm for 5 min. 80 μL cell homogenate supernatant of each well was then transferred to a clean 96 well plate, and 20 μL of HBSS-Hepes was added. Three of the wells' contents were set aside and assayed for total protein content using the Lowry assay. The compounds to be tested were dissolved in HBSS-Hepes buffer to a concentration of 200 μM.
(§2) This assay was performed at 37° C. […] The stability assay on each compound was conducted in triplicate and the concentrations averaged for each time point.

Caco-2 cells = assay: Caco-2 permeability study
Experimental: Approximately 1×10^6 cells/mL concentration of cells were seeded onto polycarbonate cell culture inserts (Transwell®; 0.45 μm×6.5 mm diameter). DMEM cell culture media was supplemented with 10% FBS, 1% L-glutamine, 1% nonessential amino acids and 1% 100 U/mL penicillin/streptomycin. The media was changed every other day (0.6 mL in the basolateral chamber and 0.1 mL to the apical chamber) and the monolayers were used between days 21-28. Transepithelial electrical resistance (TEER) of the monolayer was measured using the Millicell-ERS system (Millipore Corporation, Bedford, Mass.). C^14-mannitol permeability was used to monitor the integrity of the Caco-2 monolayers.
Prior to beginning the experiments, the monolayers were washed with pre-warmed HBSS-Hepes buffer, incubated for 30 min. At the start of the experiment the apical chamber was emptied and 100 μL of either the derivatised endomorphin or derivatised endomorphin analog solution was added. The permeability study was performed in triplicate at 37° C. shaking in a Heridolf Titramax shaking at 400 rpm. […] Permeability coefficients (Papp) were calculated from data generated by LC/MS quantitative analysis of all samples using a gradient HPLC system (Shimadzu LC-10AT system) coupled to a triple quadrupole mass spectrometer (PE Sciex API 3000) operating in SIM mode with positive ion electrospray. The mobile phase was a mixture of solvent A (0.1% formic acid in water) and solvent B (0.1% formic acid in 90% acetonitrile/water). A C18 column, 5 μM, 50×2.0 mm (Phenomex®) was used at a flow rate 0.3 mL/min with a gradient from 100% A to 90% B in 7 minutes, incorporating a splitter (1:10).
The permeability of the sugars themselves was also examined.

μ-opioid receptor = target: T1, μ-opioid receptor (Homo sapiens, UniProt P35372); assay: Whole cell-based binding assay, displacement of 3H-DAMGO
T1 construct: SH-SY5Y cells endogenously expressing μ- and δ-opioid receptors; endogenous in cells; host or cells: SH-SY5Y cells
Experimental: Media was removed and cells were washed with PBS before pre-incubation in 300 μL of binding buffer. Binding studies were performed with 100 μL of appropriate concentrations of ^3H-labeled DAMGO (a selective μ-opioid receptor agonist) and 100 μL of competitor or blank in binding buffer at 37° C. for 60 min. Competition binding experiments were performed using […] of ^3H-labelled DAMGO in the absence or presence of increasing concentrations of unlabeled derivatised endomorphins or derivatised endomorphin analogs. A 1 μM excess of unlabelled DAMGO was used to determine non-specific binding. Following incubation, the cells were washed with PBS and recovered from culture plates using 500 μL of […] before transfer to scintillation vials. Liquid scintillation cocktail (Ultima Gold, Packard, Meriden, USA) was added to these vials for counting in a liquid scintillation analyser. Data are expressed as the mean±SEM of % specific binding of triplicate determinations performed on at least three independent plates of cells. Data were plotted using the one-site competition functions of the PRISM program (Graphpad Inc., San Diego, USA) (see FIGS. 1a, 1b and 7).

[2] = test system: μ- and δ-opioid receptors; assay: Cell based assay of cAMP inhibition in forskolin treated SH-SY5Y cells; details: for Inhibit c-AMP (%): SH-SY5Y cell line, normalised to the % of cAMP inhibition seen by native endomorphin-1
Experimental: SH-SY5Y cells endogenously expressing μ- and δ-opioid receptors were cultured (100 μl) in a 96 well-plate and incubated (usually overnight) until 80% confluent. Once cells were ready for assay, Endo-1, Endo-2 and derivatives/analogs were diluted in DMEM culture medium containing 30 μM forskolin. The diluted derivatised endomorphins or derivatised endomorphin analogs were then applied to separate wells for agonist studies and co-incubated for antagonist studies. Cells were incubated with derivatised endomorphins or derivatised endomorphin analogs at 37° C. for 30 minutes, medium was aspirated and cells were lysed using lysis buffer from a cAMP Biotrak EIA kit (Amersham, Buckinghamshire, UK). An anti-cAMP antibody was added to the lysate, and the mixture incubated at 4° C. for 2 hours followed by the addition of a cAMP peroxidase conjugate, and incubated at 4° C. for a further hour. A 3,3′5,5′-tetramethylbenzidine (TMB) substrate provided by the Biotrak EIA kit was then incubated with cell lysate for 1 hour and finally 1 […] was added to facilitate a colour change, which is proportional to the amount of cAMP captured. A cAMP standard curve from 0 to 3200 fmol was also generated concurrently. Plates were then read by a plate reader at 450 nm and compared back to the cAMP standard curve. All data are compared to the maximum cAMP response to forskolin and are represented as the mean+/−standard error of three experiments performed in triplicate. All data are plotted using PRISM program (GraphPad, San Diego, Calif.) (see FIGS. 2a and 2b).

Plasma stability assay = type: in vitro ADME; details: male, human, plasma at 37° C.
Experimental: To measure the enzymatic stability of endomorphin-1 analogs in plasma, blood was taken from a healthy volunteer and the blood was centrifuged at 1700 rpm for 30 minutes to remove blood cells. The plasma was placed into a water bath heated at 37° C. and Endomorphin-1 and analog was added to give final concentrations of 0.7 mg/mL. Samples were incubated for varying time periods between 0 and 180 minutes. 50 μL of sample was taken at each time-point and 75 μL of acetonitrile was added to quench any enzyme activity. The samples were then placed on ice and upon completion of the assay, all samples were centrifuged at 9000 rpm for 3 minutes to remove all precipitated plasma proteins. The amount of intact peptide remaining in the supernatent of each sample was determined using RP HPLC by measuring the area under the curve of the peak at the appropriate retention time compared to a standard curve of concentration for each peptide (see FIG. 8).

[3] = Enzymatic stability study in homogenized Caco-2 cells; type: in vitro ADME; details: human, pH 7.4; Caco-2 cell homogenate, 37° C., 100 μM
Experimental: as §1, §2

[4] = In vivo biodistribution of 3H-labelled peptide, intravenous; design: species or system rat; details: rats, i.v.
Experimental: FIG. 5(a)-(c) are graphical representations showing in vivo bio-distribution of 1 in rats. […] After 15, 30 and 60 minutes, 5 rats were sacrificed and the brain FIG. 5(a), liver FIG. 5(b) and blood FIG. 5(c) of each rat were removed following intravenous administration. The organs were subsequently homogenised in buffer and a sample removed and placed in tissue solubiliser for 3 days. After this time a small sample was removed and treated with bleach over night to remove any colour from the solution and the resulting sample dissolved in scintillation fluid and the radioactivity measured by liquid scintillation. […] The apparent increase in blood levels of the parent peptide after 60 minutes is likely due to the breakdown of the compound and release of the radiolabeled acetate into the blood stream.

[5] = In vivo biodistribution of 3H-labelled peptide, oral; design: species or system rat; details: rats, oral administration
Experimental: After 15, 30 and 60 minutes, 5 rats were sacrificed and the brain, liver, blood, kidneys, stomach, spleen, small intestine and large intestine were removed following oral administration. The organs were subsequently homogenised in buffer and a sample removed and placed in tissue solubiliser for 3 days. After this time a small sample was removed and treated with bleach over night to remove any colour from the solution and the resulting sample dissolved in scintillation fluid and the radioactivity measured by liquid scintillation.

[6] = Blood plasma concentration after oral gavage; type: in vivo, rat; details: male rats
Experimental: In another experiment, Lac-endo was fed via oral gavage to male rats and the concentration of the compound in blood plasma measured over time. Sprague-dawley rats (average wt 300 g) were gavaged with 500 μL of a 20 mM Lac-endo or Endomorphin solution in water. Blood samples taken from the tail vein after 30, 60 and 90 min. The blood was centrifuged to remove red blood cells, and in a 100 μL sample of plasma was added to 300 μL of acetonitrile to precipitate proteins. The suspension was centrifuged a second time and the supernatant analysed by LC-MS.

T1 sequence (P35372 whole entry): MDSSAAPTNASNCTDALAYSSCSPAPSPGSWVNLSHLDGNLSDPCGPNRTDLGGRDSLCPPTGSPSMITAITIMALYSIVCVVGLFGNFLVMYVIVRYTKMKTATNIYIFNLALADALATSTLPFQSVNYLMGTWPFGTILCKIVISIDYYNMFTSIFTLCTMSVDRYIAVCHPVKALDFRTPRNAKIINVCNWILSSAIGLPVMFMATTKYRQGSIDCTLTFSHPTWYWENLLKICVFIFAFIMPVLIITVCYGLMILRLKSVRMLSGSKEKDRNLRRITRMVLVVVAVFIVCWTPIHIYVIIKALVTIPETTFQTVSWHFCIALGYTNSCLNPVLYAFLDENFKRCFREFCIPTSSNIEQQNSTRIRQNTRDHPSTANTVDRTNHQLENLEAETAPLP

## NC(=O)[C@H]1O[C@@H](NC(=O)[C@H](Cc2ccccc2)NC(=O)[C@H](Cc2c[nH]c3ccccc23)NC(=O)[C@@H]2CCCN2C(=O)[C@@H](N)Cc2ccc(O)cc2)[C@H](O)[C@@H](O)[C@@H]1O [Compound 18]
[1]
  Enzymatic stability 2 h: ♦
Caco-2 cells; Caco-2 cell line, graded by number of ♦ (up to 5), key not given
  Permeability: ♦

## Cc1cc(O)cc(C)c1C[C@H](N)C(=O)N1CCC[C@H]1C(=O)N[C@@H](Cc1c[nH]c2ccccc12)C(=O)N[C@@H](Cc1ccccc1)C(N)=O [(Dmt^1)Endo, reference compound]
μ-opioid receptor
  Ki: 0.058 nM
[2]; Efficacy SH-SY5Y cell line
  IC50: 0.156 nM
[2]
  Inhibit c-AMP (%): 160%
Plasma stability assay
  half-life at 0.7 mg/mL: 4.18 min
[3]
  half-life at 100 μM: 8.98 min
[1]
  Enzymatic stability 2 h: ♦

## CCCCCCC(N)C(=O)N[C@@H](Cc1ccc(O)cc1)C(=O)N1CCC[C@H]1C(=O)N[C@@H](Cc1c[nH]c2ccccc12)C(=O)N[C@@H](Cc1ccccc1)C(N)=O (stereo partly shown) [Compound 1] (H-[ξAoc(2)]YPWF-NH2)
μ-opioid receptor
  Ki: 2.45 nM
μ-opioid receptor; displacement of 3H-DAMGO, FIG. 1
  Ki / binding affinity, in words: low nanomolar range
[2]
  Inhibit c-AMP (%): 97%
[3]
  half-life: 25.5 min
Caco-2 cells; Caco-2 cell monolayers, compared to parent peptide
  apparent permeability (Papp), in words: significantly improved apparent permeability compared to the parent peptide
[4]
  accumulation in the liver, in words: accumulate less in the liver than the parent peptide
[4]; after 15 minutes
  label appearing in the brain: > 10%
[5]
  delivery to the brain, in words: evidence of delivery of the peptide to the brain
[5]; over the time of the experiment
  increase in serum levels compared to the native peptide: 6 fold

## NC(=O)[C@H](Cc1ccccc1)NC(=O)[C@H](Cc1c[nH]c2ccccc12)NC(=O)[C@@H]1CCCN1C(=O)[C@H](Cc1ccc(O)cc1)NC(=O)CCC(=O)N[C@@H]1O[C@H](CO)[C@@H](O[C@@H]2O[C@H](CO)[C@H](O)[C@H](O)[C@H]2O)[C@H](O)[C@H]1O [Compound 12]
Caco-2 cells; Caco-2 monolayers, 20 mM galactose
  absorption of Lac-endo in presence of galactose: some inhibition of absorption but less than lactose
Caco-2 cells; Caco-2 monolayers, 20 mM glucose
  absorption of Lac-endo in presence of glucose: doesn't inhibit the absorption
Caco-2 cells; Caco-2 monolayers, 20 mM lactose
  absorption of Lac-endo in presence of lactose: severely inhibits the absorption
[6]; Sprague-Dawley, rat, plasma, 10 µmol/rat, read-out: time of highest recorded concentration in blood (converted)
  Tmax: 60 min
[6]; 500 μL of 20 mM solution
  absorption across the GI tract, in words: significant absorption of the compound across the GI tract
